# Where two headings read alike, the source gives them in different places.
# How the values were obtained:
# [1] = Hansch, C. et al. (1995), cited from earlier work
# [2] = Second sacrificial agent testing protocol: paste air measurements with DDBS (0.0125 wt %) and rating; details: for B1 + 0.0125% DDBS + 0.05% SA (air entrainment) / B1 + 0.0125% DDBS + 0.1% SA (air entrainment): B1 FA/cement paste; for PCA + 0.1% SA (level of air entrainment by the candidate sacrificial agent): Portland cement paste (PCA); for SA Rating (0-4): sacrificial agent overall rating index; for Overall performance rating (second protocol rating): key: 0: Fail; 1: Poor; 2: Good; 3: Preferred; 4: Most preferred; for SA Rating (0-4): key: 0: Fail; 1: Poor; 2: Good; 3: Preferred; 4: Most preferred
# How it was run: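 Air entrainment was measured in cement pastes of fixed composition and fluidity. The candidate agent was tested alone at 0.1 wt % in a cement-only paste. It was also tested at 0.05 and 0.1 wt % in a fly ash (B1)-cement paste with DDBS, where air recovery was calculated against the same paste without agent.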
# [3] = Air entrainment in mortars (ASTM C185-88); details: for decrease of variability (RSD values): fly ash mortars, Air 30 combined with the SA versus Air 30 alone
# Protocol: Air entrainment were measured in mortars containing portland cement only (control), or a combination of portland cement and fly ash in the ratio 70:30;
# The mix compositions are given in the Table below and the measurements were performed according to standard protocols described in ASTM C185-88
# [4] = 30:70 fly ash B1 (LOI 5.01%):cement mortar, 0.002 wt % Air 30 alone or +0.05 wt % SA
# [5] = 30:70 fly ash B1 (LOI 5.01%):cement mortar, 0.005 wt % Air 40 alone or +0.05 wt % SA
# [6] = 30:70 fly ash C1 (LOI 0.70%):cement mortar, 0.002 wt % Air 30 alone or +0.05 wt % SA
# [7] = 30:70 fly ash C1 (LOI 0.70%):cement mortar, 0.005 wt % Air 40 alone or +0.05 wt % SA
# [8] = 30:70 fly ash C2 (LOI 3.04%):cement mortar, 0.002 wt % Air 30 alone or +0.05 wt % SA
# [9] = 30:70 fly ash C2 (LOI 3.04%):cement mortar, 0.005 wt % Air 40 alone or +0.05 wt % SA
# [10] = 30:70 fly ash C3 (LOI 2.54%):cement mortar, 0.002 wt % Air 30 alone or +0.05 wt % SA
# [11] = 30:70 fly ash C3 (LOI 2.54%):cement mortar, 0.005 wt % Air 40 alone or +0.05 wt % SA
# [12] = 30:70 fly ash D (LOI […]):cement mortar, 0.002 wt % Air 30 alone or +0.05 wt % SA
# [13] = 30:70 fly ash D (LOI […]):cement mortar, 0.005 wt % Air 40 alone or +0.05 wt % SA
# [14] = 30:70 fly ash H1 (LOI 8.45%):cement mortar, 0.002 wt % Air 30 alone or +0.05 wt % SA
# [15] = 30:70 fly ash H1 (LOI 8.45%):cement mortar, 0.005 wt % Air 40 alone or +0.05 wt % SA
# [16] = 30:70 fly ash M1 (LOI […]):cement mortar, 0.002 wt % Air 30 alone or +0.05 wt % SA
# [17] = 30:70 fly ash M1 (LOI […]):cement mortar, 0.005 wt % Air 40 alone or +0.05 wt % SA
# [18] = 30:70 fly ash M2 (LOI 8.78%):cement mortar, 0.002 wt % Air 30 alone or +0.05 wt % SA
# [19] = 30:70 fly ash M2 (LOI 8.78%):cement mortar, 0.005 wt % Air 40 alone or +0.05 wt % SA
# [20] = 30:70 fly ash M3 (LOI 3.15%):cement mortar, 0.002 wt % Air 30 alone or +0.05 wt % SA
# [21] = 30:70 fly ash M3 (LOI 3.15%):cement mortar, 0.005 wt % Air 40 alone or +0.05 wt % SA
# [22] = 30:70 fly ash R (LOI 0.17%):cement mortar, 0.002 wt % Air 30 alone or +0.05 wt % SA
# [23] = 30:70 fly ash R (LOI 0.17%):cement mortar, 0.005 wt % Air 40 alone or +0.05 wt % SA
# [24] = PCA cement mortar, no fly ash, 0.0017 wt % Air 30 alone or +0.05 wt % SA
# [25] = PCA cement mortar, no fly ash, 0.004 wt % Air 40 alone or +0.05 wt % SA
# [26] = over the fly ash mortars of Table 12, 0.002 wt % Air 30 alone or +0.05 wt % SA
# [27] = over the fly ash mortars of Table 13, 0.005 wt % Air 40 alone or +0.05 wt % SA
compound,measurement,setting,value
"OCCOc1ccccc1 [EGPE, Ethylene glycol phenyl ether]",Experimental LogKow,[1],1.16
same,Experimental LogKow,[1]; listed as 2-Phenoxyethanol,Experimental LogKow: 1.16
same,Overall performance rating (second protocol rating),[2],4
same,B1 + 0.0125% DDBS + 0.05% SA (air entrainment),[2],6.9
same,B1 + 0.0125% DDBS + 0.1% SA (air entrainment),[2],8.1
same,PCA + 0.1% SA (level of air entrainment by the candidate sacrificial agent),[2],1.5
same,SA Rating (0-4),[2],4
same,Air entrainment,[3]; [4],3.6
same,Air entrainment,"[3]; 30:70 fly ash B1 (LOI 5.01%):cement mortar, 0.005 wt % Air 40 +0.1 wt % EGPE",9.3
same,Air entrainment,[3]; [5],5.4
same,Air entrainment,[3]; [6],4.7
same,Air entrainment,"[3]; 30:70 fly ash C1 (LOI 0.70%):cement mortar, 0.005 wt % Air 40 +0.1 wt % EGPE",12.6
same,Air entrainment,[3]; [7],6.6
same,Air entrainment,[3]; [8],6.9
same,Air entrainment,"[3]; 30:70 fly ash C2 (LOI 3.04%):cement mortar, 0.005 wt % Air 40 +0.1 wt % EGPE",12.4
same,Air entrainment,[3]; [9],8.8
same,Air entrainment,[3]; [10],5.9
same,Air entrainment,"[3]; 30:70 fly ash C3 (LOI 2.54%):cement mortar, 0.005 wt % Air 40 +0.1 wt % EGPE",9.8
same,Air entrainment,[3]; [11],8.0
same,Air entrainment,[3]; [12],14.9
same,Air entrainment,"[3]; 30:70 fly ash D (LOI […]):cement mortar, 0.005 wt % Air 40 +0.1 wt % EGPE",13.2
same,Air entrainment,[3]; [13],12.8
same,Air entrainment,[3]; [14],3.1
same,Air entrainment,"[3]; 30:70 fly ash H1 (LOI 8.45%):cement mortar, 0.005 wt % Air 40 +0.1 wt % EGPE",5.7
same,Air entrainment,[3]; [15],3.1
same,Air entrainment,[3]; [16],5.4
same,Air entrainment,"[3]; 30:70 fly ash M1 (LOI […]):cement mortar, 0.005 wt % Air 40 +0.1 wt % EGPE",12.7
same,Air entrainment,[3]; [17],8.0
same,Air entrainment,[3]; [18],2.8
same,Air entrainment,"[3]; 30:70 fly ash M2 (LOI 8.78%):cement mortar, 0.005 wt % Air 40 +0.1 wt % EGPE",6.7
same,Air entrainment,[3]; [19],4.9
same,Air entrainment,[3]; [20],7.6
same,Air entrainment,"[3]; 30:70 fly ash M3 (LOI 3.15%):cement mortar, 0.005 wt % Air 40 +0.1 wt % EGPE",18.3
same,Air entrainment,[3]; [21],10.2
same,Air entrainment,[3]; [22],13.5
same,Air entrainment,"[3]; 30:70 fly ash R (LOI 0.17%):cement mortar, 0.005 wt % Air 40 +0.1 wt % EGPE",15.2
same,Air entrainment,[3]; [23],13.5
same,Air entrainment,[3]; [24],14.0
same,Air entrainment,"[3]; PCA cement mortar, no fly ash, 0.004 wt % Air 40 +0.1 wt % EGPE",16.2
same,Air entrainment,[3]; [25],14.9
same,decrease of variability (RSD values),[3],approximately 50%
same,Average of air entrained,[3]; [26],6.8%
same,Average of air entrained,"[3]; over the fly ash mortars of Table 13, 0.005 wt % Air 40 +0.1 wt % EGPE",12%
same,Average of air entrained,[3]; [27],8.1%
"O=S(=O)([O-])c1ccc2ccccc2c1.[Na+] [NS, Sodium 2-Naphthalene sulfonate]",Overall performance rating (second protocol rating),[2],3
same,B1 + 0.0125% DDBS + 0.05% SA (air entrainment),[2],4.4
same,B1 + 0.0125% DDBS + 0.1% SA (air entrainment),[2],5.3
same,PCA + 0.1% SA (level of air entrainment by the candidate sacrificial agent),[2],1.0
same,SA Rating (0-4),[2],3
same,Air entrainment,[3]; [4],4.0
same,Air entrainment,[3]; [5],5.6
same,Air entrainment,[3]; [6],4.3
same,Air entrainment,[3]; [7],7.2
same,Air entrainment,[3]; [8],5.9
same,Air entrainment,[3]; [9],7.5
same,Air entrainment,[3]; [10],4.8
same,Air entrainment,[3]; [11],7.8
same,Air entrainment,[3]; [12],11.4
same,Air entrainment,[3]; [13],12.6
same,Air entrainment,[3]; [14],2.7
same,Air entrainment,[3]; [15],3.0
same,Air entrainment,[3]; [16],5.8
same,Air entrainment,[3]; [17],8.2
same,Air entrainment,[3]; [18],2.8
same,Air entrainment,[3]; [19],5.0
same,Air entrainment,[3]; [20],6.9
same,Air entrainment,[3]; [21],10.0
same,Air entrainment,[3]; [22],12.0
same,Air entrainment,[3]; [23],13.7
same,Air entrainment,[3]; [24],13.4
same,Air entrainment,[3]; [25],14.8
same,decrease of variability (RSD values),[3],approximately 50%
same,Average of air entrained,[3]; [26],6.1%
same,Average of air entrained,[3]; [27],8.0%
